Laboratory results as given in PMC8379015, “Resistance of Mycobacterium tuberculosis to indole 4-carboxamides occurs through alterations in drug metabolism and tryptophan biosynthesis” (Cell Chemical Biology, 2021).
Values after ≈ are worked out from the molar mass of the structure shown.

Key:
[1] = test system: M. tuberculosis H37Rv recombineered trpB / trpE mutant strains; format: cell-based, Mycobacterium tuberculosis
[2] = test system: M. tuberculosis H37Rv mutant 5H (amiC + g in aa352); format: cell-based, Mycobacterium tuberculosis
[3] = test system: M. tuberculosis H37Rv mutant 5K (trpB A134V); format: cell-based, Mycobacterium tuberculosis
[4] = test system: M. tuberculosis H37Rv mutant 5O (trpB D261G); format: cell-based, Mycobacterium tuberculosis
[5] = test system: M. tuberculosis H37Rv mutant 5J (trpB A168V); format: cell-based, Mycobacterium tuberculosis
[6] = test system: C1-resistant mutants of M. tuberculosis; format: cell-based, Mycobacterium tuberculosis
[7] = test system: M. tuberculosis H37Rv mutant 5M (trpB D261G); format: cell-based, Mycobacterium tuberculosis
[8] = test system: M. tuberculosis H37Rv mutant 5A (amiC K195∗); format: cell-based, Mycobacterium tuberculosis
[9] = test system: M. tuberculosis H37Rv mutant 5I (amiC + g in aa352); format: cell-based, Mycobacterium tuberculosis
C5R mutants of Mtb = format: cell-based, Mycobacterium tuberculosis
[10] = test system: M. tuberculosis H37Rv mutant 5N (trpA D54G); format: cell-based, Mycobacterium tuberculosis
[11] = test system: M. tuberculosis H37Rv mutant 5G (amiC S157F); format: cell-based, Mycobacterium tuberculosis
[12] = test system: M. tuberculosis H37Rv mutant 5L (trpE H170R); format: cell-based, Mycobacterium tuberculosis
[13] = test system: M. tuberculosis H37Rv mutant 5B (amiC W238∗); format: cell-based, Mycobacterium tuberculosis
TrpE H170R = TrpE H170R (Mycobacterium tuberculosis, UniProt P9WFX3, H170R); format: biochemical
[14] = test system: M. tuberculosis H37Rv overexpressing AmiC (rv2888c, Psmyc); format: cell-based, Mycobacterium tuberculosis

| Molecule | resistance of recombineered strains [1] | MIC [2] [µM] | MIC [3] [µM] | MIC [4] [µM] | MIC [5] [µM] | MIC [7] [µM] | MIC [8] [µM] | MIC [9] [µM] | MIC [10] [µM] | MIC [11] [µM] | MIC [12] [µM] | MIC [13] [µM] | cross-resistance of C1-resistant mutants [6] | further results |
| --- | --- | --- | --- | --- | --- | --- | --- | --- | --- | --- | --- | --- | --- | --- |
| Nc1cccc2[nH]ccc12 [4-AI, 4-aminoindole, reference compound] | resistant | 4.68 (≈ 0.619 µg/mL) | 100 (≈ 13.2 µg/mL) | 100 (≈ 13.2 µg/mL) | 100 (≈ 13.2 µg/mL) | 100 (≈ 13.2 µg/mL) | 4.68 (≈ 0.619 µg/mL) | 4.68 (≈ 0.619 µg/mL) | 100 (≈ 13.2 µg/mL) | 4.68 (≈ 0.619 µg/mL) | 100 (≈ 13.2 µg/mL) | 4.68 (≈ 0.619 µg/mL) |  | cross-resistance of amiC mutants [6]: not cross-resistant; resistance of trpABE mutants [6]: highly resistant; cross-resistance of C5R mutants (C5R mutants of Mtb): no cross-resistance; shift in MIC [12]: approximately 4 fold |
| O=C(COc1ccccc1)Nc1cccc2[nH]ccc12 [C2, N-(1H-indol-4-yl)-2-phenoxyacetamide] | resistant | 75 (≈ 20 µg/mL) | 25 (≈ 6.66 µg/mL) | 25 (≈ 6.66 µg/mL) | 25 (≈ 6.66 µg/mL) | 25 (≈ 6.66 µg/mL) | 75 (≈ 20 µg/mL) | 75 (≈ 20 µg/mL) | 25 (≈ 6.66 µg/mL) | 75 (≈ 20 µg/mL) | 25 (≈ 6.66 µg/mL) | 75 (≈ 20 µg/mL) | cross-resistant |  |
| O=C(Nc1cccc2[nH]ccc12)C1CCCCC1 [C3, N-(1H-indol-4-yl)cyclohexanecarboxamide] |  | >100 | >100 | >100 | >100 | >100 | >100 | >100 | >100 | >100 | >100 | >100 | cross-resistant |  |
| O=C(Nc1cccc2[nH]ccc12)c1ccc(OCC(F)(F)F)cn1 [C4, N-(1H-indol-4-yl)-5-(2,2,2-trifluoroethoxy)picolinamide] |  | 75 (≈ 25.1 µg/mL) | 25 (≈ 8.38 µg/mL) | 25 (≈ 8.38 µg/mL) | 25 (≈ 8.38 µg/mL) | 25 (≈ 8.38 µg/mL) | 75 (≈ 25.1 µg/mL) | 75 (≈ 25.1 µg/mL) | 25 (≈ 8.38 µg/mL) | 75 (≈ 25.1 µg/mL) | 25 (≈ 8.38 µg/mL) | 75 (≈ 25.1 µg/mL) | cross-resistant |  |
| CNS(=O)(=O)c1ccc2c(c1)CCN2C(=O)c1ccc(C)s1 [C5, reference compound] |  | 0.39 (≈ 0.131 µg/mL) | 0.39 (≈ 0.131 µg/mL) | 0.19 (≈ 0.0639 µg/mL) | 0.39 (≈ 0.131 µg/mL) | 0.098 (≈ 0.033 µg/mL) | 0.39 (≈ 0.131 µg/mL) | 0.39 (≈ 0.131 µg/mL) | 0.19 (≈ 0.0639 µg/mL) | 0.39 (≈ 0.131 µg/mL) | 0.39 (≈ 0.131 µg/mL) | 0.39 (≈ 0.131 µg/mL) |  | cross-resistance of mutants raised against C1 [6]: None of the resistant mutants raised against C1 were cross-resistant; susceptibility of one C1R mutant relative to WT [6]: more susceptible |
| NNC(=O)c1ccncc1 [INH, isoniazid, reference compound] | not | 0.12 (≈ 0.0165 µg/mL) | 0.12 (≈ 0.0165 µg/mL) | 0.12 (≈ 0.0165 µg/mL) | 0.12 (≈ 0.0165 µg/mL) | 0.12 (≈ 0.0165 µg/mL) | 0.12 (≈ 0.0165 µg/mL) | 0.12 (≈ 0.0165 µg/mL) | 0.12 (≈ 0.0165 µg/mL) | 0.12 (≈ 0.0165 µg/mL) | 0.12 (≈ 0.0165 µg/mL) | 0.12 (≈ 0.0165 µg/mL) |  |  |
| N[C@@H](Cc1c[nH]c2ccccc12)C(=O)O [L-Trp, L-tryptophan] |  |  |  |  |  |  |  |  |  |  |  |  |  | loss of sensitivity to allosteric inhibition, H170R vs WT (TrpE H170R): 250 times |
| N-(1H-indol-4-yl)-6-(2,2,2-trifluoroethoxy)nicotinamide [C1] | resistant | >100 | 6.25 | 6.25 | 6.25 | 6.25 | >100 | >100 | 6.25 | >100 | 6.25 | >100 |  | cross-resistance of C5R mutants (C5R mutants of Mtb): no cross-resistance; change in MIC on overexpression of AmiC [14]: did not result in a noticeable change in MIC |
